We go through 5 compounds from ChEMBL document CHEMBL1141013, “Novel oxime and oxime ether derivatives of 12,14-dichlorodehydroabietic acid: design, synthesis, and BK channel-opening activity” (Bioorg Med Chem Lett, 2008).

Molecules are shown by their SMILES.

In this assay the target is Calcium-activated potassium channel subunit alpha-1 (Homo sapiens) (UniProt Q12791). The assay can be described thus: Activation of human BKalpha channel expressed in CHOK1 cells assessed as increase in ionic current at 30 uM by patch clamp method relative to control. It is filed as cell-based. To be noted: CHO-K1.
Calcium-activated potassium channel subunit alpha-1 (Homo sapiens), sequence (Q12791 whole entry): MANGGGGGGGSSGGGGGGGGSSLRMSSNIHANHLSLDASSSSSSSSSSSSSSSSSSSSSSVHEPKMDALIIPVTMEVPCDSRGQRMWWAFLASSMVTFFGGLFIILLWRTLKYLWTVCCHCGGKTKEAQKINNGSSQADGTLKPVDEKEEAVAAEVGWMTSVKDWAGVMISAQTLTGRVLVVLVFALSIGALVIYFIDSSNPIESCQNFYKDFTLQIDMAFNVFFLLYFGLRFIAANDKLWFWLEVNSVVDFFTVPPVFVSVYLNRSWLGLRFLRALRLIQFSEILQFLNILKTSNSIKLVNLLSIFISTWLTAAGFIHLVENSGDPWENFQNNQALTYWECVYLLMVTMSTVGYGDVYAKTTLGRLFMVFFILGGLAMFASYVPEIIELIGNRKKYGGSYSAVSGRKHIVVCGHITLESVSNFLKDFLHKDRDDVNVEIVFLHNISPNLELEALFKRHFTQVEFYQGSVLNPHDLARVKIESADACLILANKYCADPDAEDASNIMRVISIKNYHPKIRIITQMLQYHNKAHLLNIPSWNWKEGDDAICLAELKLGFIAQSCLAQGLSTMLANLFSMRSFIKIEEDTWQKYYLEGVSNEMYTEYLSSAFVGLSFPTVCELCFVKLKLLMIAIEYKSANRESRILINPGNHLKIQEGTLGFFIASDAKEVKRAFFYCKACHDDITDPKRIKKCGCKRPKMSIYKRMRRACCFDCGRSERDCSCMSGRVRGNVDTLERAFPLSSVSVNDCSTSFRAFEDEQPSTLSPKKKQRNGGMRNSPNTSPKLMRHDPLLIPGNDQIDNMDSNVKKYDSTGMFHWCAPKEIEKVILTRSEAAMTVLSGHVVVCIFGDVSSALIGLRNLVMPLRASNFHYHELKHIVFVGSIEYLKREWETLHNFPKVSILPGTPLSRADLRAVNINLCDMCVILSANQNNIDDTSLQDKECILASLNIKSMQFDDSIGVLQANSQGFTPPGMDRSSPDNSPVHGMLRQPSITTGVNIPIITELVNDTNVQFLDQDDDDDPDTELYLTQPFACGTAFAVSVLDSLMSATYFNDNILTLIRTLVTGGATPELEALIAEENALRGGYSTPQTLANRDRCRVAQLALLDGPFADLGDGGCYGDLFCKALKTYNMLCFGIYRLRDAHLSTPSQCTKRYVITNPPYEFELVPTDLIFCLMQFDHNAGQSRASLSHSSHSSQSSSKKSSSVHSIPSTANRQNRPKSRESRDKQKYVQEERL
On to `C=CCO/N=C1\C[C@H]2[C@](C)(C(=O)O)CCC[C@]2(C)c2cc(Cl)c(C(C)C)c(Cl)c21`, for which the Activity turned out to be 566%.

As to `CO/N=C1\C[C@H]2[C@](C)(C(=O)O)CCC[C@]2(C)c2cc(Cl)c(C(C)C)c(Cl)c21`, the Activity came to 410%.

As to `CC(C)c1c(Cl)cc2c(c1Cl)/C(=N/O)C[C@H]1[C@](C)(C(=O)O)CCC[C@]21C`, the Activity was found to be 242%.

For `C#CCO/N=C1\C[C@H]2[C@](C)(C(=O)O)CCC[C@]2(C)c2cc(Cl)c(C(C)C)c(Cl)c21`, the Activity turned out to be 425%.

On to `O=c1[nH]c2cc(C(F)(F)F)ccc2n1-c1cc(C(F)(F)F)ccc1O`, for which the Activity is 325%.
